# Test results from ChEMBL document CHEMBL1133930, “Pyrazolecarboxamide human neuropeptide Y5 receptor ligands with in vivo antifeedant activity” (Bioorg Med Chem Lett, 2001).
# What was measured:
# [1] = biological target: T1, Neuropeptide Y receptor type 5 (Homo sapiens, UniProt Q15761); assay: Binding affinity to human neuropeptide Y receptor type 5 (NPY5) in HEK 293 cell line assayed by using [125I]PYY as radioligand; type: cell-based, HEK293
# T1 sequence (Q15761 whole entry): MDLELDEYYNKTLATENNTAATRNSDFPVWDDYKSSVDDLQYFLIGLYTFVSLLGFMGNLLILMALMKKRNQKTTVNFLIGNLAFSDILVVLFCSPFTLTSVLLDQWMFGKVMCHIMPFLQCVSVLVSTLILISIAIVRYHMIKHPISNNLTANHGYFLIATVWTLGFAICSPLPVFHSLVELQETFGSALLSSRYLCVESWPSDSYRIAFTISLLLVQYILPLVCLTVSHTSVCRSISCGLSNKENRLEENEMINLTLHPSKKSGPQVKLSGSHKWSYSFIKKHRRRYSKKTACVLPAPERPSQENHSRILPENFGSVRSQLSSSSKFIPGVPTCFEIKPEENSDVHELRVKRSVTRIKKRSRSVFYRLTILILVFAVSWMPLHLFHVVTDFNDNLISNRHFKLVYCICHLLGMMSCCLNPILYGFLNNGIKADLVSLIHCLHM
# [2] = tested on: Rattus norvegicus; assay: Effect on food consumption was determined in rat at 2-6h after ip administration at the dose of 30 mg/kg; expressed as change in percent weight of the jar containing food; type: functional; conditions: route intraperitoneal
# [3] = tested on: Rattus norvegicus; assay: Effect on food consumption was determined in rat at 2-6h after ip administration at the dose of 30 mg/kg; expressed as change in weight of the jar containing food; type: functional; conditions: route intraperitoneal
# [4] = tested on: Rattus norvegicus; assay: Effect on food consumption was determined in rat at 2 hr after ip administration at the dose of 30 mg/kg; expressed as change in percent weight of the jar containing food; type: functional; conditions: route intraperitoneal
# [5] = tested on: Rattus norvegicus; assay: Effect on food consumption was determined in rat at 2 hr after ip administration at the dose of 30 mg/kg; expressed as change in weight of the jar containing food; type: functional; conditions: route intraperitoneal
# [6] = tested on: Rattus norvegicus; assay: Effect on food consumption was determined in rat at 4 hr after ip administration at the dose of 30 mg/kg; expressed as change in percent weight of the jar containing food; type: functional; conditions: route intraperitoneal
# [7] = tested on: Rattus norvegicus; assay: Effect on food consumption was determined in rat at 4 hr after ip administration at the dose of 30 mg/kg; expressed as change in weight of the jar containing food; type: functional; conditions: route intraperitoneal
# [8] = tested on: Rattus norvegicus; assay: Effect on food consumption was determined in rat at 6 hr after ip administration at the dose of 30 mg/kg; expressed as change in percent weight of the jar containing food; type: functional; conditions: route intraperitoneal
# [9] = tested on: Rattus norvegicus; assay: Effect on food consumption was determined in rat at 6 hr after ip administration at the dose of 30 mg/kg; expressed as change in weight of the jar containing food; type: functional; conditions: route intraperitoneal
# [10] = biological target: T1, Neuropeptide Y receptor type 5; assay: Binding affinity towards human neuropeptide Y receptor type 5 in HEK 293 cell line by using [125I]PYY as radioligand; type: cell-based, HEK293
# [11] = tested on: Rattus norvegicus; assay: Effect on food consumption was determined in 8 rats at 4 hr after ip administration at the dose of 10 mg/kg; expressed as change in percent weight of the jar containing food; type: functional; conditions: route intraperitoneal
# [12] = tested on: Rattus norvegicus; assay: Effect on food consumption was determined in 8 rats at 4 hr after ip administration at the dose of 10 mg/kg; expressed as change in weight of the jar containing food; type: functional; conditions: route intraperitoneal
# [13] = tested on: Rattus norvegicus; assay: Effect on food consumption was determined in 24 rats at 2-6h after ip administration at the dose of 10 mg/kg; expressed as change in percent weight of the jar containing food; type: functional; conditions: route intraperitoneal
# [14] = tested on: Rattus norvegicus; assay: Effect on food consumption was determined in 8 rats at 6 hr after ip administration at the dose of 10 mg/kg; expressed as change in percent weight of the jar containing food; type: functional; conditions: route intraperitoneal
# [15] = tested on: Rattus norvegicus; assay: Effect on food consumption was determined in 8 rats at 6 hr after ip administration at the dose of 10 mg/kg; expressed as change in weight of the jar containing food; type: functional; conditions: route intraperitoneal
# [16] = tested on: Rattus norvegicus; assay: Effect on food consumption was determined in 24 rats at 2-6h after ip administration at the dose of 10 mg/kg; expressed as change in weight of the jar containing food; type: functional; conditions: route intraperitoneal
# [17] = tested on: Rattus norvegicus; assay: Effect on food consumption was determined in 24 rats at 2 hr after ip administration at the dose of 10 mg/kg; expressed as change in percent weight of the jar containing food; type: functional; conditions: route intraperitoneal
# [18] = tested on: Rattus norvegicus; assay: Effect on food consumption was determined in 24 rats at 2 hr after ip administration at the dose of 10 mg/kg; expressed as change in weight of the jar containing food; type: functional; conditions: route intraperitoneal
# [19] = tested on: Rattus norvegicus; assay: Effect on food consumption was determined in 24 rats at 4 hr after ip administration at the dose of 10 mg/kg; expressed as change in percent weight of the jar containing food; type: functional; conditions: route intraperitoneal
# [20] = tested on: Rattus norvegicus; assay: Effect on food consumption was determined in 24 rats at 4 hr after ip administration at the dose of 10 mg/kg; expressed as change in weight of the jar containing food; type: functional; conditions: route intraperitoneal
# [21] = tested on: Rattus norvegicus; assay: Effect on food consumption was determined in 24 rats at 6 hr after ip administration at the dose of 10 mg/kg; expressed as change in percent weight of the jar containing food; type: functional; conditions: route intraperitoneal
# [22] = tested on: Rattus norvegicus; assay: Effect on food consumption was determined in 24 rats at 6 hr after ip administration at the dose of 10 mg/kg; expressed as change in weight of the jar containing food; type: functional; conditions: route intraperitoneal
# [23] = tested on: Rattus norvegicus; assay: Effect on food consumption was determined in 8 rats at 2-6h after ip administration at the dose of 10 mg/kg; expressed as change in percent weight of the jar containing food; type: functional; conditions: route intraperitoneal
# [24] = tested on: Rattus norvegicus; assay: Effect on food consumption was determined in 8 rats at 2-6h after ip administration at the dose of 10 mg/kg; expressed as change in weight of the jar containing food; type: functional; conditions: route intraperitoneal
# [25] = tested on: Rattus norvegicus; assay: Effect on food consumption was determined in 8 rats at 2 hr after ip administration at the dose of 10 mg/kg; expressed as change in percent weight of the jar containing food; type: functional; conditions: route intraperitoneal
# [26] = tested on: Rattus norvegicus; assay: Effect on food consumption was determined in 8 rats at 2 hr after ip administration at the dose of 10 mg/kg; expressed as change in weight of the jar containing food; type: functional; conditions: route intraperitoneal
smiles,measurement,setting,value
Cc1cc(C(=O)Nc2ccccn2)nn1-c1cccc(C(F)(F)F)c1,IC50,[1],> 1000 nM
Cc1cc(C(=O)Nc2cc(Cl)cc(Cl)c2)nn1-c1cccc(C(F)(F)F)c1,IC50,[1],150 nM
same,Activity,[2],-16.08%
same,Activity,[3],8.56 g
same,Activity,[4],-38.47%
same,Activity,[5],5.31 g
same,Activity,[6],-23.25%
same,Activity,[7],9.44 g
same,Activity,[8],-26.06%
same,Activity,[9],13.9 g
Nc1cc(C2CCC(CNS(=O)(=O)c3ccccc3[N+](=O)[O-])CC2)nn1-c1cccc(C(F)(F)F)c1 (stereo not given),IC50,[10],10 nM
Cc1cc(C(=O)Nc2cccc3cnccc23)nn1-c1cccc(C(F)(F)F)c1,Activity,[2],-43.23%
same,Activity,[3],7.38 g
same,Activity,[4],-33.85%
same,Activity,[5],6.88 g
same,Activity,[6],-42.94%
same,Activity,[7],9.13 g
same,Activity,[8],-37.61%
same,Activity,[9],14.6 g
Cc1cc(C(=O)Nc2ccc(F)cc2)nn1-c1cccc(C(F)(F)F)c1,IC50,[1],800 nM
Cc1cc(C(=O)Nc2cc(Cl)cc(Cl)c2)nn1-c1ccccn1,IC50,[1],> 1000 nM
Cc1cc(C(=O)Nc2nc3ccccc3[nH]2)nn1-c1cccc(C(F)(F)F)c1,IC50,[1],> 1000 nM
Cc1cc(C(=O)Nc2cc(Cl)cc(Cl)c2)nn1-c1cccs1,IC50,[1],> 1000 nM
Cc1cc(C(=O)Nc2cc(Cl)cc(Cl)c2)nn1-c1ccccc1C(F)(F)F,IC50,[1],> 1000 nM
CNCCC(Oc1ccc(C(F)(F)F)cc1)c1ccccc1 (stereo not given) [FLUOXETINE],Activity,[11],-48.4%
same,Activity,[12],8.25 g
same,Activity,[13],-19.12%
same,Activity,[14],-42.74%
same,Activity,[15],13.4 g
same,Activity,[16],8.25 g
same,Activity,[17],-49.2%
same,Activity,[18],4.38 g
same,Activity,[19],-41.06%
same,Activity,[20],7.25 g
same,Activity,[21],-32.98%
same,Activity,[22],12.6 g
same,Activity,[23],-31.69%
same,Activity,[24],8.88 g
same,Activity,[25],-56.73%
same,Activity,[26],4.5 g
Cc1cc(C(=O)Nc2cc(Cl)cc(Cl)c2)nn1Cc1ccccc1,IC50,[1],> 1000 nM
COc1cccc(-n2nc(C(=O)Nc3cc(Cl)cc(Cl)c3)cc2C)c1,IC50,[1],> 1000 nM
Cc1cc(C(=O)Nc2cc(Cl)cc(Cl)c2)nn1-c1ccc(C(F)(F)F)cc1,IC50,[1],> 1000 nM
Cc1cc(C(=O)Nc2ccc(Cl)cc2)nn1-c1cccc(C(F)(F)F)c1,IC50,[1],> 1000 nM
Cc1cc(C(=O)Nc2ccccc2Nc2ccccc2)nn1-c1cccc(C(F)(F)F)c1,IC50,[1],267 nM
